Broadly, the logD is lipophilicity at a set pH, counting ionised and neutral species.

Data on 13 compounds can be found in the SangsterLogP compilation.

SMILES strings stand for the structures.

One series can be described thus: method code SF-AS, from DOI: 10.1002/qsar.19890080102. The conditions noted are these: pH 1.5.
Compound `NS(=O)(=O)c1ccc(Br)cc1` had a logD of 1.34.
`NS(=O)(=O)c1cccc(Br)c1` registered a logD of 1.35.
As for `NS(=O)(=O)c1ccc(I)cc1`, the logD is 1.55.
Same read-out and setting: the figure for `NS(=O)(=O)c1ccc(-c2ccccc2)cc1` is 2.24.
On the same count and under the same terms, to `NS(=O)(=O)c1cccc(S(N)(=O)=O)c1` belongs -0.5; to `NS(=O)(=O)c1cccc(I)c1`, 1.58; to `CCCCOc1cccc(S(N)(=O)=O)c1`, 2.06.
The same measure, in the same setting: to `NS(=O)(=O)c1cccc(Cl)c1` belongs 1.16; to `CC(C)c1cccc(S(N)(=O)=O)c1`, 1.66.
`CC(C)c1ccc(S(N)(=O)=O)cc1` yielded a logD of 1.71.
In turn, `CCCCOc1ccc(S(N)(=O)=O)cc1` yielded a logD of 2.05.
`CS(=O)(=O)Nc1ccc(S(N)(=O)=O)cc1` registered a log distribution coefficient (logD) of -0.4.

Still in this series, the particulars now being: pH 5.5.
Compound `Nc1cccc(S(N)(=O)=O)c1` registered a logD of -0.32.
